Reference: PubChem BioAssay AID1919004 (Molecular Pharmacology Branch, DTP, NCI, 2023)
“And” between values parts separate entries of the source, which are not always exact repeats. Identical values can stand only once.

System: 883617-216-R-J1-PDC complex spheroids, growth, % test/control
Assay: Anticancer human tumor 883617-216-R-J1-PDC patient-derived bladder carcinoma cell line growth inhibition [AhR]
Conditions: for viability, T/C: stronger effect = lower value
Source text: Multicellular complex tumor spheroid response to aryl hydrocarbon receptor antagonists in combination with a variety of drugs and investigational agents in selected tumor cell lines
The current study was undertaken to assess response to aryl hydrocarbon receptor antagonists in combination with standard-of-care drugs and investigational agents in solid tumor complex spheroid models. Complex spheroids include a stromal component modeled by human endothelial cells (HUVEC) and fibroblasts modeled by human mesenchymal stem cells (MSCs). The concentration ranges selected for each drug and investigational agent were based upon clinically achievable concentrations if the clinical Cmax of the agent was known.
Compounds. The drugs and investigational agents: BAY 2416964 (NSC825713), GNF351 (NSC835774), CH-223191 (NSC835775), CPI-455 (NSC825282), aza-TdCyd (NSC777586), decitabine (NSC127716), belinostat (NSC758774), entinostat (NSC756642), pevonedistat (NSC761192), tazemetostat (NSC777109), talazoparib (NSC765396), olaparib (NSC753686), selinexor (NSC780203), nedisertib (M3814, NSC802822), bortezomib (NSC756655), venetoclax (NSC766270), doxorubicin (NSC123127), elimusertib (BAY189344, NSC800525), ceralasertib (AZD6738, NSC777638), TAK-243 (NSC785004), alisertib (NSC759677), etoposide (NSC141540), topotecan (NSC609699), eribulin (NSC707389), gemcitabine (NSC613327), carboplatin (NSC241240), cisplatin (NSC119875), and SN-38 (NSC673596) were obtained from the National Cancer Institute (NCI) Developmental Therapeutics Program Chemical Repository (32). The FDA-approved anticancer drug set is available from the Developmental Therapeutics Program at https://dtp.cancer.gov/organization/dscb/obtaining/available plates.htm. […] The stock solutions were prepared in dimethyl sulfoxide (DMSO, Sigma-Aldrich, St. Louis, MO, cat. D2650), except for the platinum compounds which were prepared in saline (Quality Biological, Gaithersburg, MD, cat. 114-055-101), at 800-fold the tested concentration and stored at -70 degrees C prior to their use. All drugs and investigational agents were tested over a range starting from a high concentration at or near the clinical Cmax and decreasing in half-log increments. If the clinical Cmax for an agent had not been determined, the highest concentration tested was 10 microM (Table 1).
Cell Culture. All cells were maintained in an incubator at 37 degrees C and 5% CO2 with 95% humidity. The PDC lines were cultured according to standard operating procedures established by the NCI PDMR (https://pdmr.cancer.gov). Briefly, all PDCs were thawed and cultured in Matrigel-coated flasks prepared with a working solution of 1X Ham's F-12 nutrient mix, without supplementation (Invitrogen, Waltham, MA, cat. 11765054), 100 U/mL penicillin-streptomycin (Invitrogen, cat. 15140122), and 2.5% Matrigel (Corning Inc., Corning, NY, cat. 354248) for the first three passages. All PDCs were cultured in complete DMEM/F-12 media containing advanced DMEM/F-12 (Invitrogen, cat. 12634028), 4.9% defined fetal bovine serum, heat inactivated (HyClone Laboratories Inc., Logan, UT, cat. SH30070.03HI), 389 ng/mL hydrocortisone (Sigma-Aldrich, cat. H4001), 9.7 ng/mL human EGF recombinant protein (Invitrogen, cat. PHG0313), 23.4 microg/mL adenine (Sigma-Aldrich, cat. A2786), 97.3 U/mL penicillin-streptomycin (Invitrogen, cat. 15140122), 1.9 mM L-glutamine (Invitrogen, cat. 25030081), and 9.7 microM Y-27632 dihydrochloride (Tocris Bioscience, Bristol, United Kingdom, cat. 1254). The PDCs were cultured in complete DMEM/F12 media without 10 microM Y-27632 dihydrochloride for at least two passages prior to the screen. The established cell lines NCI-H1341 and […] were cultured in DMEM/F-12, HEPES (Invitrogen, cat. 11330032), 5% defined fetal bovine serum (HyClone Laboratories Inc., cat. SH30070.03), ITS premix universal culture supplement [insulin (5 microg/mL), transferrin (5 microg/mL), and selenious acid (5 ng/mL)] […]

[1] = curve of first compound, second compound 0.1 µM
[2] = curve of first compound, second compound 0.316 µM
[3] = curve of first compound, second compound 1 µM
[4] = curve of first compound, second compound 3.16 µM
[5] = curve of first compound, second compound 10 µM
[6] = second compound 0.1 µM, first compound 0.0316 µM
[7] = second compound 0.1 µM, first compound 0.1 µM
[8] = second compound 0.1 µM, first compound 0.316 µM
[9] = second compound 0.1 µM, first compound 1 µM
[10] = second compound 0.316 µM, first compound 0.0316 µM
[11] = second compound 0.316 µM, first compound 0.1 µM
[12] = second compound 0.316 µM, first compound 0.316 µM
[13] = second compound 0.316 µM, first compound 1 µM
[14] = second compound 1 µM, first compound 0.0316 µM
[15] = second compound 1 µM, first compound 0.1 µM
[16] = second compound 1 µM, first compound 0.316 µM
[17] = second compound 1 µM, first compound 1 µM
[18] = second compound 3.16 µM, first compound 0.0316 µM
[19] = second compound 3.16 µM, first compound 0.1 µM
[20] = second compound 3.16 µM, first compound 0.316 µM
[21] = second compound 3.16 µM, first compound 1 µM
[22] = second compound 10 µM, first compound 0.0316 µM
[23] = second compound 10 µM, first compound 0.1 µM
[24] = second compound 10 µM, first compound 0.316 µM
[25] = second compound 10 µM, first compound 1 µM
[26] = second compound 0.1 µM, first compound 3.16 µM
[27] = second compound 0.1 µM, first compound 10 µM
[28] = second compound 0.316 µM, first compound 3.16 µM
[29] = second compound 0.316 µM, first compound 10 µM
[30] = second compound 1 µM, first compound 3.16 µM
[31] = second compound 1 µM, first compound 10 µM
[32] = second compound 3.16 µM, first compound 3.16 µM
[33] = second compound 3.16 µM, first compound 10 µM
[34] = second compound 10 µM, first compound 3.16 µM
[35] = second compound 10 µM, first compound 10 µM
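Further: exposure lasted 7 days after dosing on day 3 of spheroid growth.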

SMILES | IC50 [1] [µM] | IC50 [2] [µM] | IC50 [3] [µM] | IC50 [4] [µM] | IC50 [5] [µM] | viability, T/C [6] [%] | viability, T/C [7] [%] | viability, T/C [8] [%] | viability, T/C [9] [%] | viability, T/C [10] [%] | viability, T/C [11] [%] | viability, T/C [12] [%] | viability, T/C [13] [%] | viability, T/C [14] [%] | viability, T/C [15] [%] | viability, T/C [16] [%] | viability, T/C [17] [%] | viability, T/C [18] [%] | viability, T/C [19] [%] | viability, T/C [20] [%] | further results
CC1COCCN1c1cc(C2(S(C)(=N)=O)CC2)nc(-c2ccnc3[nH]ccc23)n1 (centres undefined) + Cc1cncc(-c2nc(NCCc3c[nH]c4ccccc34)c3ncn(C(C)C)c3n2)c1 | > 10 | > 10 | > 10 | > 10 | 1.19 | 88.1 | 90.5 | 84.3 | 84.8 | 92.4 | 95.6 | 92.3 | 82.1 | 95.8 | 100 | 100 | 94.9 | 103 | 113 | 100 | viability, T/C [26]: 78.3%; viability, T/C [27]: 58.2%; viability, T/C [28]: 69.3%; viability, T/C [29]: 54.3%; viability, T/C [30]: 81.7%; viability, T/C [31]: 62.9%; viability, T/C [21]: 94.2%; viability, T/C [32]: 85%; viability, T/C [33]: 54.8%; viability, T/C [22]: 57%; viability, T/C [23]: 50.1%; viability, T/C [24]: 59.6%; viability, T/C [25]: 50.6%; viability, T/C [34]: 42.7%; viability, T/C [35]: 29.8%
COc1ccc([C@@H](O)c2cc(-c3ncnc4cc(N5CCOCC5)ccc34)c(F)cc2Cl)nn1 + CC(CO)NC(=O)c1cc(-c2ccc(Cl)cc2)nn(-c2cnn(C)c2)c1=O | 9.07 | 8.4 | 10 | 10 | 3.52 | 83 | 94.7 | 76.8 | 75.9 | 69.9 | 128 | 83.1 | 63.9 | 86.4 | 99.7 | 55.9 | 58.9 | 64.8 | 135 | 73.6 | viability, T/C [26]: 60.1%; viability, T/C [27]: 49.1%; viability, T/C [28]: 124%; viability, T/C [29]: 42.2%; viability, T/C [30]: 61.4%; viability, T/C [31]: 42.1%; viability, T/C [21]: 61.7%; viability, T/C [32]: 37.1%; viability, T/C [33]: 51.6%; viability, T/C [22]: 119%; viability, T/C [23]: 81.7%; viability, T/C [24]: 88.7%; viability, T/C [25]: 73.4%; viability, T/C [34]: 51.1%; viability, T/C [35]: 32.4%
COc1cccc2c1C(=O)c1c(O)c3c(c(O)c1C2=O)CC(O)(C(=O)CO)CC3OC1CC(N)C(O)C(C)O1 (centres undefined) | – | – | – | – | – | – | – | – | – | – | – | – | – | – | – | – | – | – | – | – | viability, T/C (compound 0.0316 µM): 70.3% and 65.3% and 99.7%; viability, T/C (compound 0.1 µM): 65.2% and 60.5% and 54.1%; viability, T/C (compound 0.316 µM): 60.8% and 58.8% and 62.2%; viability, T/C (compound 1 µM): 22.4% and 23% and 6.26%; viability, T/C (compound 3.16 µM): 0.22% and 0.36% and 3.97%; viability, T/C (compound 10 µM): 0.22% and 0.16% and 3.6%; IC50 (curve of compound): 0.436 µM and 0.42 µM and 0.211 µM
O=C(c1cc(Cc2n[nH]c(=O)c3ccccc23)ccc1F)N1CCN(C(=O)C2CC2)CC1 | – | – | – | – | – | – | – | – | – | – | – | – | – | – | – | – | – | – | – | – | viability, T/C (compound 0.0316 µM): 101% and 100% and 93%; viability, T/C (compound 0.1 µM): 89.1% and 106% and 100%; viability, T/C (compound 0.316 µM): 95.9% and 94.9% and 112%; viability, T/C (compound 1 µM): 85.9% and 97.1% and 102%; viability, T/C (compound 3.16 µM): 88% and 93.1% and 105%; viability, T/C (compound 10 µM): 70.5% and 76.4% and 105%; IC50 (curve of compound): > 10 µM

Further lines, with some results ahead:

IC50 [1] [µM] | IC50 [2] [µM] | IC50 [3] [µM] | IC50 [4] [µM] | IC50 [5] [µM] | SMILES | viability, T/C [6] [%] | viability, T/C [7] [%] | viability, T/C [8] [%] | viability, T/C [9] [%] | viability, T/C [10] [%] | viability, T/C [11] [%] | viability, T/C [12] [%] | viability, T/C [13] [%] | viability, T/C [14] [%] | viability, T/C [15] [%] | viability, T/C [16] [%] | viability, T/C [17] [%] | viability, T/C [18] [%] | viability, T/C [19] [%] | viability, T/C [20] [%] | further results
> 1 | > 1 | > 1 | > 1 | > 1 | CC1COCCN1c1cc(-c2ccnn2C)c2ccnc(-c3ccn[nH]3)c2n1 (centres undefined) + CC(CO)NC(=O)c1cc(-c2ccc(Cl)cc2)nn(-c2cnn(C)c2)c1=O | 55.6 | 87.4 | 73.9 | 56.8 | 88.2 | 63.8 | 48.5 | 53.1 | 114 | 100 | 53.5 | 54 | 72.8 | 73.2 | 61.7 | viability, T/C (second compound 0.1 µM, first compound 0.00316 µM): 70.5%; viability, T/C (second compound 0.1 µM, first compound 0.01 µM): 80.7%; viability, T/C (second compound 0.316 µM, first compound 0.00316 µM): 80.9%; viability, T/C (second compound 0.316 µM, first compound 0.01 µM): 85.6%; viability, T/C (second compound 1 µM, first compound 0.00316 µM): 88.8%; viability, T/C (second compound 1 µM, first compound 0.01 µM): 82.5%; viability, T/C (second compound 3.16 µM, first compound 0.00316 µM): 58.3%; viability, T/C (second compound 3.16 µM, first compound 0.01 µM): 69.8%; viability, T/C [21]: 53.2%; viability, T/C (second compound 10 µM, first compound 0.00316 µM): 65.8%; viability, T/C (second compound 10 µM, first compound 0.01 µM): 64.2%; viability, T/C [22]: 72.8%; viability, T/C [23]: 53.8%; viability, T/C [24]: 54.4%; viability, T/C [25]: 72%
> 10 | > 10 | > 10 | > 10 | > 10 | COc1cc(C2c3cc4c(cc3C(OC3OC5COC(C)OC5C(O)C3O)C3COC(=O)C23)OCO4)cc(OC)c1O (centres undefined) + Cc1ccccc1N=Nc1ccc(NC(=O)c2ccnn2C)c(C)c1 | 86.4 | 83.5 | 69.7 | 68 | 80.8 | 86.7 | 77.3 | 69 | 80.7 | 82 | 75.7 | 64.6 | 73 | 72.7 | 71.1 | viability, T/C [26]: 69.5%; viability, T/C [27]: 57.4%; viability, T/C [28]: 70.2%; viability, T/C [29]: 57.6%; viability, T/C [30]: 72.1%; viability, T/C [31]: 54.2%; viability, T/C [21]: 61.2%; viability, T/C [32]: 70.9%; viability, T/C [33]: 56.4%; viability, T/C [22]: 67.8%; viability, T/C [23]: 77.5%; viability, T/C [24]: 73.2%; viability, T/C [25]: 65.6%; viability, T/C [34]: 63.5%; viability, T/C [35]: 57.1%
